The test system of assay [1] is pS6 (Ser240/244) in MEF TSC1−/− cells (mTORC1 signaling). The assay is described as follows: Cell-based assay for rapalog potency (pS6 in MEF TSC1-/- cells). On the set-up: species or system Mouse. As to conditions: 2 hours treatment, average from multiple assays.
Description: Cell-based assay for rapalog potency determination. Rapalog potency was determined using MEF TSC1−/− cell based assay. […] This cell-based assay is used to measure inhibition (de-phosphorylation) of S6 and 4EBP1 by rapalogs or other mTOR inhibitors.
MEF TSC1−/− cells were plated on Poly-D-lysine coated 384 well Griener clear bottom plates and incubated overnight at 37° C., 5% CO2. […] Nuclei were visualized with Hoechst (ThermoFisher Scientific #H3570) staining. Cells were imaged (InCell 600) using respective fluorescence channels and the potency of mTOR inhibitors was defined by pS6 IC50 (nM).
Assay [2] addresses T1, FKBP12 (Homo sapiens, UniProt P62942).
T1 construct: made in house; host or cells: E. coli
Nature of the assay: SPR assay, binding affinity to FKBP12. The conditions noted are these: single-cycle kinetics, immobilized avi-his6 FKBP12. The procedure:
(§1) SPR assay to determine binding affinity to FK506-binding proteins (FKBP). […] Each protein was subsequently immobilized on a streptavidin chip in a Biacore 8K SPR instrument (GE Healthcare). Using single-cycle kinetics, compound titrations were flowed at 45 uL/min over each surface using 2-minute association and 30-minute dissociation phases in a buffer containing 50 mM Tris pH 7.5/150 mM NaCl/0.01% Tween 20/1 mM DTT/2% DMSO. The data were fit using low molecular weight (LMW) single-cycle kinetics. The equilibrium dissociation constants (KD) are reported. The equilibrium dissociation constants (KD) to FKBP12, FKBP51, and FKBP52 are listed in Table 2 for the compound of the disclosure.
In general terms: In SPR one partner is held on a chip, and binding of the other changes the refractive index at the surface.

Assay [3] addresses FKBP12.6 (Homo sapiens, UniProt P68106). The assay is described as follows: SPR assay, binding affinity to FKBP12.6. As to conditions: single-cycle kinetics. As to the method: as §1
Assay [4] concerns the target T2, FKBP25 (Homo sapiens, UniProt Q00688).
T2 sequence (Q00688 1-224): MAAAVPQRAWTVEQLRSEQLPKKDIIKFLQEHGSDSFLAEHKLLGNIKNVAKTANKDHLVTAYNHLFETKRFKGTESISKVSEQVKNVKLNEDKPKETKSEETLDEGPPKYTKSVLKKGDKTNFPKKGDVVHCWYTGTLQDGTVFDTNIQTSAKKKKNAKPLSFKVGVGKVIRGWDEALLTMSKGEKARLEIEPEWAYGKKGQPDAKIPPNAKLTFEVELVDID
The assay is described as follows: SPR assay, binding affinity to FKBP25. As to conditions: single-cycle kinetics. As to the method: as §1

The target of assay [5] is T3, FKBP51 (Homo sapiens, UniProt Q13451).
T3 construct: made in house; host or cells: E. coli
T3 sequence (Q13451 1-457): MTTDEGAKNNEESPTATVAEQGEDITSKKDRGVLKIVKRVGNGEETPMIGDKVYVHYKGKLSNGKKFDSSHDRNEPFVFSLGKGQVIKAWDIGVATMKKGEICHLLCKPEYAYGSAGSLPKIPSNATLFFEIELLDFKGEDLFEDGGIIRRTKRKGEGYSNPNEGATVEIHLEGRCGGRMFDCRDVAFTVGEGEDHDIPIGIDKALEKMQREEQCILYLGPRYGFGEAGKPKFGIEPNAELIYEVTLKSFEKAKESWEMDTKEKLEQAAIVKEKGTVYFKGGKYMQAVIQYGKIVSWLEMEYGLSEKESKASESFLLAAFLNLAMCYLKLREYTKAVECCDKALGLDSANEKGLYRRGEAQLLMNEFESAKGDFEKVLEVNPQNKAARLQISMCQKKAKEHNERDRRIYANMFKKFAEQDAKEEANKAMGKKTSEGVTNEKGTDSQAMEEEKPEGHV
Nature of the assay: SPR assay, binding affinity to FKBP51. The conditions noted are these: single-cycle kinetics, immobilized avi-his6 FKBP51. As to the method:
as §1

In assay [6] the target is T4, FKBP52 (Homo sapiens, UniProt Q02790).
T4 construct: made in house; host or cells: E. coli
T4 sequence (Q02790 1-459): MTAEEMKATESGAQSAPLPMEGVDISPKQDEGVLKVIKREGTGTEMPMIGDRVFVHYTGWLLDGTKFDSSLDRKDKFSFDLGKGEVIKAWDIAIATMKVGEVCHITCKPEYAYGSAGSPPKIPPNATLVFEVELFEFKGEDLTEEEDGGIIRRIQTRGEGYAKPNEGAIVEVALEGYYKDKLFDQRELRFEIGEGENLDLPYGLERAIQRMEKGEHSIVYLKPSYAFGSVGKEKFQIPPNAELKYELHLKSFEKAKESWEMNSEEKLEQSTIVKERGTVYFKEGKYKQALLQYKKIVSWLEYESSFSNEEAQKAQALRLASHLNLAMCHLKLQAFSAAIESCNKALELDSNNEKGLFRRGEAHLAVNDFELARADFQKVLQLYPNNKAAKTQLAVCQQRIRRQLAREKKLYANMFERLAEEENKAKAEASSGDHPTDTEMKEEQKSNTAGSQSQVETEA
Nature of the assay: SPR assay, binding affinity to FKBP52. The conditions noted are these: single-cycle kinetics, immobilized avi-his6 FKBP52. As to the method: as §1

Assay [7] relates to S6K1(Thr389) phosphorylation (mTORC1 activity) in FKBP12 knock-out 293T cells. Nature of the assay: pS6K1(Thr389) sandwich ELISA in FKBP12 knock-out 293T cells. Type of assay: cell-based. As to conditions: 2 hours, dose range 1000 nM to 0.0033 nM, relative to DMSO media (FIG. 1B). The procedure: Cells were treated in triplicate. The Y axis represents percent inhibition of pS6K1(Thr389) relative to the level in cells treated with rapalog free media (media plus DMSO).
Generation of FKPB12 knock-out 293T cells.
WT and FKBP12 knock-out 293T cells were plated at a density of 30,000 cells per well in poly-D-Lysine coated 96-well plates (Corning, #354461) in Dulbecco's modified Eagle's medium (ThermoFisher, #11995-065) supplemented with 10% fetal bovine serum (ThermoFisher, #16140-071). Cells were incubated at 37° C., 5% CO2 for 48 hours until they reached ˜80% confluence. […] Media supplemented with blank Dimethyl sulfoxide (DMSO) was used as a control for both compounds. Phosphorylated amounts of S6K1 (Thr389) were detected by a sandwich ELISA kit (Cell signaling, #7063C) following the manufacture's protocol.
S6K1 is a downstream target of mTORC1 and phosphorylation of its rapalog-sensitive Thr389 site is used as a functional readout of mTORC1 activity (Lee, C. H., Inoki, K. and Guan, K. L. (2007). mTOR pathway as a target in tissue hypertrophy. Annu. Rev. Pharmacol. Toxicol. 47, 443-467).
Background: An ELISA detects its analyte on a solid surface through an enzyme-linked reagent.

The structures appear in SMILES notation.

For orientation: IC50 means the concentration at which inhibition is half-maximal. Higher therefore signals lower potency. By Kd is commonly meant the concentration at which binding is half-saturated. High values mean a looser complex, low ones a tighter complex.

T1 sequence (P62942 whole entry): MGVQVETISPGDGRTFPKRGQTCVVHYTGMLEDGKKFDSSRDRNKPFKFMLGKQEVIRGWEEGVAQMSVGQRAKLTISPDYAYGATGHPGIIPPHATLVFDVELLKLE
Sequence of FKBP12.6 (P68106 whole entry, species assumed): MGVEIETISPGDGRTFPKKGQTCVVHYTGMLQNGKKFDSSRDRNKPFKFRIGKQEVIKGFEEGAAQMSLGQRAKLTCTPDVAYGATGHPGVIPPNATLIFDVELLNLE

Turning to `CO[C@@H]1C[C@H](C[C@@H](C)[C@@H]2CC(=O)[C@H](C)/C=C(\C)[C@@H](O)[C@@H](OC)C(=O)[C@H](C)C[C@H](C)/C=C/C=C/C=C(\C)C(N3CCCS3(=O)=O)C[C@@H]3CC[C@@H](C)[C@@](O)(O3)C(=O)C(=O)N3CCCC[C@H]3C(=O)O2)CC[C@H]1OCCO` (single isomer, unassigned) [Compound 2], 22.5 nM corresponded to half-maximal inhibition in assay [1] (IC50).

In turn, `CO[C@@H]1C[C@H](C[C@@H](C)[C@@H]2CC(=O)[C@H](C)/C=C(\C)[C@@H](O)[C@@H](OC)C(=O)[C@H](C)C[C@H](C)/C=C/C=C/C=C(\C)C(N3CCCS3(=O)=O)C[C@@H]3CC[C@@H](C)[C@@](O)(O3)C(=O)C(=O)N3CCCC[C@H]3C(=O)O2)CC[C@H]1OCCO` (single isomer, unassigned) [Compound 3] showed an IC50 in assay [1] of 8.3 nM.

Regarding `CO[C@@H]1C[C@H](C[C@@H](C)[C@@H]2CC(=O)[C@H](C)/C=C(\C)[C@@H](O)[C@@H](OC)C(=O)[C@H](C)C[C@H](C)/C=C/C=C/C=C(\C)C(N3CCCS3(=O)=O)C[C@@H]3CC[C@@H](C)[C@@](O)(O3)C(=O)C(=O)N3CCCC[C@H]3C(=O)O2)CC[C@H]1O` (stereo partly drawn) [Compound 1], half-maximal inhibition in assay [1] (Mus musculus, 2 h) (IC50) was put at 1.36 nM. Besides, the Kd in assay [2] is 6.4 nM; in assay [3], 56 nM; in assay [4], 28900 nM; in assay [5], 2040 nM; in assay [6] it was 3550 nM. In addition, the “inhibition of S6K1(Thr389) phosphorylation” value in assay [7] is “no longer inhibited”.

Regarding `CO[C@@H]1C[C@H](C[C@@H](C)[C@@H]2CC(=O)[C@H](C)/C=C(\C)[C@@H](O)[C@@H](OC)C(=O)[C@H](C)C[C@H](C)/C=C/C=C/C=C(\C)C(N3CCCCS3(=O)=O)C[C@@H]3CC[C@@H](C)[C@@](O)(O3)C(=O)C(=O)N3CCCC[C@H]3C(=O)O2)CC[C@H]1O` (stereo partly drawn) [Compound 4], the IC50 in assay [1] (Mus musculus, 2 h) was determined as 3.4 nM. Further, the Kd in assay [2] was found to be 10.9 nM; in assay [5], 2580 nM; in assay [6] it was 2580 nM.

For `CO[C@H]1C[C@@H]2CC[C@@H](C)[C@@](O)(O2)C(=O)C(=O)N2CCCC[C@H]2C(=O)O[C@H]([C@H](C)C[C@@H]2CC[C@@H](OCCO)[C@H](OC)C2)CC(=O)[C@H](C)/C=C(\C)[C@@H](O)[C@@H](OC)C(=O)[C@H](C)C[C@H](C)/C=C/C=C/C=C/1C` [RAD001, everolimus, reference compound], the midpoint of inhibition in assay [1] (Mus musculus, 2 h), the IC50, lay at 0.05 nM. Also, the Kd in assay [2] came out at 288 nM; in assay [3], 12 nM; in assay [4], 25 nM; in assay [5], 396 nM; in assay [6] it was 676 nM. In addition, the “inhibition of S6K1(Thr389) phosphorylation” value in assay [7] is roughly 50%.

`CO[C@H]1C[C@@H]2CC[C@@H](C)[C@@](O)(O2)C(=O)C(=O)N2CCCC[C@H]2C(=O)O[C@H]([C@H](C)C[C@@H]2CC[C@@H](O)[C@H](OC)C2)CC(=O)[C@H](C)/C=C(\C)[C@@H](O)[C@@H](OC)C(=O)[C@H](C)C[C@H](C)/C=C/C=C/C=C/1C` [Rapamycin, reference compound] registered an IC50 in assay [1] (Mus musculus, 2 h) of 0.05 nM. This lies in the picomolar range.

The values are drawn from US12648936B2 (NOVARTIS AG, priority 2019, dated 2026).
